According to patent US20110300198A1, “HYDROCOLLOID - ESSENTIAL OIL PATCHES” (priority 2010, published 2011):
Values joined by “and” are separate entries in the source; they are usually repeats but may differ in a detail not shown here. Equal values may be shown once. Marks after values point to notes of the source that are not given here.

How the values were obtained:
[1] = Ex-vivo transfer of essential-oil constituents through the skin in Franz diffusion cells; type: in vitro ADME, rat; conditions: for Accumulated concentration transferred through the skin: from gum karaya-Lavandula angustifolia essential oil patch (7.5% oil); for Accumulated concentration diffused through the skin: mixture of Lavandula angustifolia essential oil and almond oil rubbed on the skin
Protocol: Ex-vivo release studies were performed in Franz diffusion cells (FCs) (PermeGear, Hellertown, Pa.). Stomach skin pieces (1.2 cm×1.2 cm) from a male rat, which were stored in the freezer for 1 month, were thawed at room temperature and placed in glass FCs. The surface area for absorption was 0.64 cm2. The FCs were thermoregulated with a water jacket at 32° C. The 4.5-ml volume of the receptor chamber of the FC was filled with a receptor solution containing 5% (w/v) bovine serum albumin (BSA) diluted with phosphate buffer pH 7.4. […] The receptor solution was continuously agitated with a magnetic stirrer. During the experiments, the donor compartments and sampling arms were sealed to prevent evaporation. The fluid in the receptor chamber was removed after different periods of time (0, 6, 12, 24, 36 and 48 h) and replaced with fresh phosphate buffer solution. Samples were stored at 4° C. after sampling, prior to analysis. Samples were analyzed in a gas chromatograph (Agilent Technologies, Santa Clara, Calif.) with a WAX 30 m×0.32 mm×0.25 μm (Agilent) column.
Transdermal delivery of essential-oil components through rat skin from both lavender essential oil, which includes a high proportion of terpenoids, and Valencia orange essential oil, which includes a considerable amount of terpene, entrapped within gum-karaya-based patches, was examined. In addition to the regular patch adhered to the skin to be tested for essential-oil delivery by the traditional FCs and by in vivo tests (detailed below), another experiment was performed in which the skin was smeared with an almond-essential oil mixture, in order to partially imitate the situation in which the skin is massaged in an aromatherapy session. All experiments were conducted at ambient temperature and the inclusion of the essential oil as part of the almond oil-essential oil mixture (for the massage-like simulation) was equal in quantity and proportion to the inclusion of essential oil within the patch.

[2] = In-vivo experiment with HP-5 column, constituents in blood; set-up: species or system rat
Excerpt: Male Sprague-Dawley rats, weighing 300-350 g, were used in the studies (Harlan, Rehovot, Israel). The experimental protocols were approved by the Hebrew University of Jerusalem Committee on the Use and Care of Animals. Rats were maintained under specified-pathogen-free (SPF) conditions and were allowed to acclimate to the environment for at least 7 days before their use in the study. Rats were anesthetized and the fur on their stomach shaved prior to exposure. Gum karaya patches with and without lavender essential oil were applied to the rat's stomach skin. Each rat was housed in an individual cage in order to prevent oral contamination of the essential oil by one rat eating another's patch. Blood samples (0.5 ml) were taken at 0, 12, 24, 36, 48 and 60 h from a nick at the tip of tail to determine contents of essential-oil components. Rats were restrained and the tail was gently massaged to facilitate blood collection. Blood samples were collected in vials containing 0.1 ml heparin (100 kU, Sigma). A 10-μl volume of aqueous linalyl isovalerate stock solution was added as an internal standard to each blood sample and samples were stored at −80° C. After 60 h, patches were removed and the application site was wiped with 70% alcohol. Animals were sacrificed and the patch of stomach skin to which the essential oil patch had been applied was removed and minced into small pieces. The skin pieces were placed in 1 ml of ethanol containing linalyl isovalerate as the internal standard and sonicated for 30 min after heating to 50° C. A 10-μl aliquot was then injected straight into the gas chromatograph. A urine sample (0.5 ml) was obtained from the bladder immediately after sacrifice. Urine samples were similarly analyzed by gas chromatography (GC).
Blood (0.5 ml) or phosphate buffer (0.5 ml) was collected at t=0, 12, 24, 36, 48 and 60 h. Blood samples were placed in Eppendorf heparin-coated glass vials (Agilent) by heparin-washed syringe, which were sealed with septa and screw caps. Each vial contained 100 μl of heparin and blood samples were frozen at −80° C. for storage. Prior to analysis, the blood or phosphate buffer was thawed to room temperature, a 10-μl volume of internal standards (6.5 mg linalyl isovalerate and 6.5 mg geranyl formate in 25 ml acetonitrile) was added to the vial and then the mixture was vortexed. The vials were tightly capped using a clear cap with septum. The septa were pre-punctured immediately before analysis using a needle to facilitate the insertion of the fiber sheath. The fiber sheath was inserted through the septum, and positioned to expose the fiber in the center of the headspace. The vial was placed on a heating block to maintain temperature at a constant 50° C. and the solid-phase microextraction (SPME) assembly was clamped securely. Absorption time was 30 min. No stirring was required. After absorption, the SPME fiber sheath was immediately transferred to the GC injector for desorption for 5 min and GC analysis.
GC was performed on an Agilent 7890A gas chromatograph equipped with a split/splitless capillary injector, flame ionization detection (FID) system and GC Chem Station (Version B.03.01; Agilent Technologies 2007). Chromatography was carried out on a WAX or HP-5 column (30 m×0.32 mm×0.25 μm). The GC operating conditions were: splitless or split 1:40 injector 240° C., oven 50° C. for 1 min and then 10° C. min^−1 to 160° C., then 25° C. min^−1 to 240° C. and held for 6 min; the carrier gas was hydrogen.
In this experiment, patches containing lavender essential oil were adhered to the abdomen area. Patches without essential oil served as blanks. […] Detection under splitless conditions facilitated the detection of linalyl acetate, linalool, camphor, borneol and α-terpineol, the latter two being additional constituents detected only under these conditions. High concentrations of linalool, borneol and camphor were detected, in comparison to low levels of terpeneol and linalyl acetate. […]

[3] = cited from earlier work
[4] = male, Sprague-Dawley, rat, in vivo

| Structure (SMILES) | % diffused (of initial amount of entrapped essential oil) ([1]; Almond-lavandula mixture, 0 h) | % diffused (of initial amount of entrapped essential oil) ([1]; Almond-lavandula mixture, 6 h) | % diffused (of initial amount of entrapped essential oil) ([1]; Almond-lavandula mixture, 12 h) | % diffused (of initial amount of entrapped essential oil) ([1]; Almond-lavandula mixture, 24 h) | % diffused (of initial amount of entrapped essential oil) ([1]; Lavandula patch, 0 h) | % diffused (of initial amount of entrapped essential oil) ([1]; Lavandula patch, 6 h) | % diffused (of initial amount of entrapped essential oil) ([1]; Lavandula patch, 12 h) | Accumulated concentration transferred through the skin ([1]; 6 h) | Accumulated concentration transferred through the skin ([1]; 12 h) | Accumulated concentration transferred through the skin ([1]; 24 h) | Accumulated concentration diffused through the skin ([1]; 6 h) | Accumulated concentration diffused through the skin ([1]; 12 h) | Accumulated concentration diffused through the skin ([1]; 24 h) | Log P [3] | also measured |
| --- | --- | --- | --- | --- | --- | --- | --- | --- | --- | --- | --- | --- | --- | --- | --- |
| C=CC(C)(O)CCC=C(C)C (centres unmarked) [Linalool] | 0.00^a % | 1.29 ± 1.53^a % | 2.01 ± 2.09^a % | 3.93% and 3.93 ± 0.01^a % | 0.00^a % | 0.73 ± 0.16^b % | 1.53 ± 0.03^c % | 16.49 ± 2.81^a mg/L | 34.46 ± 1.20^b mg/L | 61.64 ± 3.83^c mg/L | 31.07 ± 36.72^a mg L^−1 | 48.34 ± 50.41^a mg L^−1 | 94.78 ± 0.19^a mg L^−1 | about 3 | % diffused (of initial amount of entrapped essential oil) ([1]; Lavandula patch, 24 h): 2.74 ± 0.31^d %; Calculated steady-state flux ([1]; rubbing in a mixture with almond oil): 0.027 mg.cm^−2 h^−1; Calculated steady-state flux ([1]; transferred from a lavender essential oil patch): 0.018 mg.cm^2 h^−1; Concentration observed in the blood [2, 4]: 99 ng/mL; Highest value in blood [2, 4]: 0.099 mg/L; concentration at 60 h [2, 4]: 53 ng/mL |
| C=CC(C)(CCC=C(C)C)OC(C)=O (centres unmarked) [Linalyl acetate] | 0.00^a % | 0.107 ± 0.150^a % | 0.153 ± 0.216^a % | 0.246 ± 0.344^a % | 0.00^a % | 0.008 ± 0.011^a % | 0.013 ± 0.018^a % | 0.15 ± 0.14^a mg/L | 0.26 ± 0.25^a mg/L | 0.37 ± 0.01^a mg/L | 2.30 ± 2.24^a mg L^−1 | 3.33 ± 3.23^a mg L^−1 | 5.62 ± 4.10^a mg L^−1 | about 4 | Concentration observed in the blood ([2]; quoted for comparison with the skin extract): 9 ng/mL |
